{"source": "paper PMC6591272", "about": "“Midostaurin Reverses ABCB1-Mediated Multidrug Resistance, an in vitro Study” (Frontiers in Oncology, 2019)", "key": {"[1]": {"molecular_target": "T1, ABCB1 transporter (P-gp/MDR1) (Homo sapiens, UniProt P08183)", "T1 sequence (P08183 whole entry)": "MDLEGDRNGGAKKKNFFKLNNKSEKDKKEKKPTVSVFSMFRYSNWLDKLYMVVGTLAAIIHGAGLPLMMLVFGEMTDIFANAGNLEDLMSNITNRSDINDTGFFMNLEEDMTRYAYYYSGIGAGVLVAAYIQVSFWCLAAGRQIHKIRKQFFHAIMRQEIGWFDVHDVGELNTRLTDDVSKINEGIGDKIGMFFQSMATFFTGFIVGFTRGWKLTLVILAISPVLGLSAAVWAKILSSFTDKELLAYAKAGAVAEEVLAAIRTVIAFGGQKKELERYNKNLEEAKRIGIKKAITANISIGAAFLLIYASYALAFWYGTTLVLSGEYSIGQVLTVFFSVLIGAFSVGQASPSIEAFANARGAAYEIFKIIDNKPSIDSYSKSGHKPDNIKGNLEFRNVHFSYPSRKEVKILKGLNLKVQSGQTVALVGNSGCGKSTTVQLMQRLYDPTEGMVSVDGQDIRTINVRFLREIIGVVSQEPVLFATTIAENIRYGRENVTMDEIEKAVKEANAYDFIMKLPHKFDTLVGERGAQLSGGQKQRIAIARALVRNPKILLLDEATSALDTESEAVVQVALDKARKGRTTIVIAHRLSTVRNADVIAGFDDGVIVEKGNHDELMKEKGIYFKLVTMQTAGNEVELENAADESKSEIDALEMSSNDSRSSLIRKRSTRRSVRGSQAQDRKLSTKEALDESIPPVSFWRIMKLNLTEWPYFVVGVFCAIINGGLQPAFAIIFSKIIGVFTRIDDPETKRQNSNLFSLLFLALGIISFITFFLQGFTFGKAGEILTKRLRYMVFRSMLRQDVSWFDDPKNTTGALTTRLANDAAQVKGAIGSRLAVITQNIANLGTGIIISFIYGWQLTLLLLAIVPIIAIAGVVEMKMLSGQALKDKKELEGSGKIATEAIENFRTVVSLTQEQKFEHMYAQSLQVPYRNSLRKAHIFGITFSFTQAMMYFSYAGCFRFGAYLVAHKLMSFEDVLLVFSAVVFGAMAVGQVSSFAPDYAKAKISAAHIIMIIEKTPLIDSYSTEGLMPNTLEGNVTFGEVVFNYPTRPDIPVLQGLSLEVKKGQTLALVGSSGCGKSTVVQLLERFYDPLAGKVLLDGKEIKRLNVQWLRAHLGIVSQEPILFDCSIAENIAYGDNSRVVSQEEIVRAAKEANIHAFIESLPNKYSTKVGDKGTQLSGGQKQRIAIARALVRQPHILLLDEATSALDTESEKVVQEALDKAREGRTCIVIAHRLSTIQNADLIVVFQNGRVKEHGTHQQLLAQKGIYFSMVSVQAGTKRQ", "assay": "vanadate-sensitive ATPase assay in ABCB1-overexpressing membranes; supported by [3H]-paclitaxel efflux inhibition in KB-C2 cells", "format": "biochemical", "parameters": "cell membranes that overexpressed ABCB1"}, "[2]": {"molecular_target": "T1, ABCB1 transporter (P-gp/MDR1)"}}}
{"molecule": "CO[C@@H]1[C@H](N(C)C(=O)c2ccccc2)C[C@H]2O[C@]1(C)n1c3ccccc3c3c4c(c5c6ccccc6n2c5c31)C(=O)NC4", "note": "[midostaurin]", "values": [{"measurement": "IC50", "setting": "[1]", "result": 3.1, "unit": "µM"}]}
{"molecule": "CC(=O)O[C@H]1C(=O)[C@@]2(C)[C@H]([C@H](OC(=O)c3ccccc3)[C@]3(O)C[C@H](OC(=O)[C@H](O)[C@@H](NC(=O)c4ccccc4)c4ccccc4)C(C)=C1C3(C)C)[C@]1(OC(C)=O)CO[C@@H]1C[C@@H]2O", "note": "[paclitaxel]", "values": [{"measurement": "[3H]-paclitaxel accumulation and efflux in KB-C2 versus parental KB-3-1 cells", "setting": "[2]", "result": "midostaurin significantly decreased the efflux level of [^3H]-paclitaxel in ABCB1-overexpressing KB-C2 cells in a dose-dependent manner"}]}
